ChEMBL document CHEMBL3769344 (J Med Chem, 2016)

Assays:
MDCK = test: Cytotoxicity against MDCK cells assessed as cell viability after 72 hrs by MTT assay; assay type: cell-based, Canis lupus familiaris; conditions: dog
[1] = molecular target: Matrix protein 2 (Influenza A virus (A/Udorn/307/1972(H3N2)), UniProt P0DOF8); test: Inhibition of Influenza A virus wild type M2 proton channel infected in Xenopus laevis oocytes after 2 mins by TEVC assay; assay type: cell-based
Influenza A virus = test: Antiviral activity against Influenza A virus A/udorn/72(H3N2) expressing wild type M2 proton channel infected in MDCK cells assessed as reduction in plaque formation preincubated for 30 mins followed by infection measured on day 2 post infection by naphthalene black dye-based assay; assay type: functional, organism-based, Influenza A virus (A/udorn/1972(H3N2))

Sequence of Matrix protein 2 (Influenza A virus (A/Udorn/307/1972(H3N2)), UniProt P0DOF8) (P0DOF8 whole entry): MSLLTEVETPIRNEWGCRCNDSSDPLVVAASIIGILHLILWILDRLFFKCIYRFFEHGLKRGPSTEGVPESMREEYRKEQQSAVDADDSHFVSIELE

Structure (SMILES)	CC50 (MDCK)	further results
c1csc(-c2nnc(CNC34CC5CC(CC(C5)C3)C4)s2)c1	> 200 µM	–
OC12CC3CC(O)(C1)CC(NCc1cc(-c4cccs4)on1)(C3)C2	> 200 µM	–
C1CCC2(CC1)CCNCC2	–	IC50 [1]: 0.9 µM
NC12CC3CC(CC(C3)C1)C2 [AMANTADINE]	–	EC50 (Influenza A virus): 0.3 µM
c1csc(-c2cc(NC34CC5CC(CC(C5)C3)C4)no2)c1	100 µM	–
c1csc(-c2ncc(CNC34CC5CC(CC(C5)C3)C4)s2)c1	113 µM	–
OC1C2CC3CC1CC(NCc1cc(-c4cccs4)on1)(C3)C2 (configuration not stated)	116 µM	–
